Data as given in ChEMBL document CHEMBL1909046, “DrugMatrix in vitro pharmacology data”.

Columns and labels:
[1] = molecular target: Cytochrome P450 2C9 (Homo sapiens, UniProt P11712); details: bti-tn-5b1-4; note: in other assays of this panel Not Active means under 50% inhibition at 10 µM
[2] = molecular target: T1, 5-hydroxytryptamine receptor 2C (Homo sapiens, UniProt P28335); assay: DRUGMATRIX: Serotonin (5-Hydroxytryptamine) 5-HT2C radioligand binding (ligand: [3H] Mesulergine); type: cell membranes, CHO-K1, Membrane; details: cho-k1; Not Active = under 50% inhibition at 10 µM
T1 sequence (P28335 whole entry): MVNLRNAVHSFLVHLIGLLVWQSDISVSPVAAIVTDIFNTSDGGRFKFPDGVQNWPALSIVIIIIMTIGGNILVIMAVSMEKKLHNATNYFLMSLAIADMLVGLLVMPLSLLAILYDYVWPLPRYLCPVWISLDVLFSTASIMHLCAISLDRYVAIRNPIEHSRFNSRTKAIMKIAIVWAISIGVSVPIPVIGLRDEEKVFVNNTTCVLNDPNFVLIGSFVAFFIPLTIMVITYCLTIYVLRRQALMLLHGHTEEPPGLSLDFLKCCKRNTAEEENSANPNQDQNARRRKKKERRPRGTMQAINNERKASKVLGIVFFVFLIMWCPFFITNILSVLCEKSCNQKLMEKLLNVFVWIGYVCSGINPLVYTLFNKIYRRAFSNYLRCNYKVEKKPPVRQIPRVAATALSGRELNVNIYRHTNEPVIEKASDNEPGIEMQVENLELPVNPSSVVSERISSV

[3] = molecular target: 5-hydroxytryptamine receptor 2B (Homo sapiens, UniProt P41595); type: cell membranes, CHO-K1, Membrane; details: cho-k1; note: in other assays of this panel Not Active means under 50% inhibition at 10 µM
[4] = DRUGMATRIX: GABAA, Flunitrazepam, Central radioligand binding (ligand: [3H] Flunitrazepam); type: cell membranes, Rattus norvegicus, Wistar, Brain, Membrane; details: Not Active = under 50% inhibition at 10 µM
[5] = molecular target: T2, Cysteinyl leukotriene receptor 1 (Homo sapiens, UniProt Q9Y271); type: cell membranes, Membrane; details: cho-k1; note: in other assays of this panel Not Active means under 50% inhibition at 10 µM
T2 sequence (Q9Y271 whole entry): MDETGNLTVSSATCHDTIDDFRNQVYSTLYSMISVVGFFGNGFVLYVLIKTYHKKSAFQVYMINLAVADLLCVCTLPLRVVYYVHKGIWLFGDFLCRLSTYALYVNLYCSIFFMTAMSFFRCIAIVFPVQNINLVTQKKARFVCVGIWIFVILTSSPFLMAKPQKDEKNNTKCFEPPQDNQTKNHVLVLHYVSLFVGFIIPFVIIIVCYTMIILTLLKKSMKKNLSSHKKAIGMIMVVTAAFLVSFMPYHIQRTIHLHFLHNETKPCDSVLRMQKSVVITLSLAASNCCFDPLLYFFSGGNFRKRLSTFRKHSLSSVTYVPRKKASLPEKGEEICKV

[6] = molecular target: Beta-3 adrenergic receptor (Homo sapiens, UniProt P13945); assay: DRUGMATRIX: Adrenergic beta3 radioligand binding (ligand: [125I] Cyanopindolol); type: cell membranes, HEK293, Membrane; details: hek293; Not Active = under 50% inhibition at 10 µM
Chain of Beta-3 adrenergic receptor (P13945 whole entry): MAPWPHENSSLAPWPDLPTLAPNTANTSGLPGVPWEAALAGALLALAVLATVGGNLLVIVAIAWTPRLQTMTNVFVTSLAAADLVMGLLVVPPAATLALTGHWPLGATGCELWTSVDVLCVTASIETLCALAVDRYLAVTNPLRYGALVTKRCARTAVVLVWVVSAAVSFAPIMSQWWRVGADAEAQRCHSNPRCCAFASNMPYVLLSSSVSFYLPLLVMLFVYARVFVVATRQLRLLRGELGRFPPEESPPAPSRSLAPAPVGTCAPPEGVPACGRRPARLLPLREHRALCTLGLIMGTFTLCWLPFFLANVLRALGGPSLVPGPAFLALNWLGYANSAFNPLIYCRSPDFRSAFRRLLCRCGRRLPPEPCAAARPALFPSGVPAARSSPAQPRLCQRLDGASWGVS

Chain of 5-hydroxytryptamine receptor 2B (P41595 whole entry): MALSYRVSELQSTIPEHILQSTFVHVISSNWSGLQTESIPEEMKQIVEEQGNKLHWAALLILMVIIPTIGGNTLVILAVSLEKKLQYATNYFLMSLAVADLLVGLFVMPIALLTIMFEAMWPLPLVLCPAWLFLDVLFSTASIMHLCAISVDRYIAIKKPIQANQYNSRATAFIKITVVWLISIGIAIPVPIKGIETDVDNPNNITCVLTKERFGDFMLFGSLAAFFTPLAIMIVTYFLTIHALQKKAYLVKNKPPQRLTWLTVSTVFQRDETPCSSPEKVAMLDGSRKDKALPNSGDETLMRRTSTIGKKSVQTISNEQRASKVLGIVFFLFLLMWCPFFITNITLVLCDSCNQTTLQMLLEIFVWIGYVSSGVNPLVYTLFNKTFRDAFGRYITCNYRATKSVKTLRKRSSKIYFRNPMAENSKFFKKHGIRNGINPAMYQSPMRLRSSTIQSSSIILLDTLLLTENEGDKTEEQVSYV
Chain of Cytochrome P450 2C9 (P11712 whole entry): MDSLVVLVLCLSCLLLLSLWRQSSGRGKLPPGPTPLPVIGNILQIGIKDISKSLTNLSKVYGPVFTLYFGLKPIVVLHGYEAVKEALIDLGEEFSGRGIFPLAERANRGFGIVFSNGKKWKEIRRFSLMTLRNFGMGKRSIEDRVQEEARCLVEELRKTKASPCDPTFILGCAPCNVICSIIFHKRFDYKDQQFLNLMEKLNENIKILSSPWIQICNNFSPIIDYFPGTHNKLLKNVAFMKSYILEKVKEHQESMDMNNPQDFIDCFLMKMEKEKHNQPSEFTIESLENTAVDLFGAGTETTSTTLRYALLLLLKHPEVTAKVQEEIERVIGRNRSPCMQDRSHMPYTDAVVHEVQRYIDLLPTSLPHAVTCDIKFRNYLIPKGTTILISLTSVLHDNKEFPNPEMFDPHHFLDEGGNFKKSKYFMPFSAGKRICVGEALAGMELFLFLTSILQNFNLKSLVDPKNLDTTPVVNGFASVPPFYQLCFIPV

O=C(O)c1cn(-c2ccc(F)cc2)c2cc(N3CCNCC3)c(F)cc2c1=O [SARAFLOXACIN]
Not Active: IC50 [1] | Ki [1] | IC50 [2] | IC50 [3] | IC50 [4] | Ki [4] | IC50 [5] | IC50 [6]

CC(C)NCC(O)c1ccc(NS(C)(=O)=O)cc1 (configuration not stated) [SOTALOL]
Not Active: IC50 [1] | Ki [1] | IC50 [2] | IC50 [3] | IC50 [4] | Ki [4] | IC50 [5] | IC50 [6]

O.O.O.O.O.O.[Cl-].[Cl-].[Sr+2] [STRONTIUM CHLORIDE HEXAHYDRATE]
Not Active: IC50 [1] | Ki [1] | IC50 [2] | IC50 [3] | IC50 [4] | Ki [4] | IC50 [5] | IC50 [6]

O=C1C(CC[S+]([O-])c2ccccc2)C(=O)N(c2ccccc2)N1c1ccccc1 (configuration not stated) [SULFINPYRAZONE]
Not Active: IC50 [1] | Ki [1] | IC50 [2] | IC50 [3] | IC50 [4] | Ki [4] | IC50 [5] | IC50 [6]

COc1cc2nc(N3CCN(C(=O)C4CCCO4)CC3)nc(N)c2cc1OC (configuration not stated) [TERAZOSIN]
Not Active: IC50 [1] | Ki [1] | IC50 [2] | IC50 [3] | IC50 [4] | Ki [4] | IC50 [5] | IC50 [6]

CN(C/C=C/C#CC(C)(C)C)Cc1cccc2ccccc12 [TERBINAFINE]
Not Active: IC50 [1] | Ki [1] | IC50 [2] | IC50 [3] | IC50 [4] | Ki [4] | IC50 [5] | IC50 [6]

CS(=O)(=O)c1ccc([C@@H](O)[C@@H](CO)NC(=O)C(Cl)Cl)cc1 [THIAMPHENICOL]
Not Active: IC50 [1] | Ki [1] | IC50 [2] | IC50 [3] | IC50 [4] | Ki [4] | IC50 [5] | IC50 [6]

CCN(CC)CCNC(=O)c1cc(S(C)(=O)=O)ccc1OC [TIAPRIDE]
Not Active: IC50 [1] | Ki [1] | IC50 [2] | IC50 [3] | IC50 [4] | Ki [4] | IC50 [5] | IC50 [6]

Clc1ccccc1CN1CCc2sccc2C1 [TICLOPIDINE]
Not Active: IC50 [1] | Ki [1] | IC50 [2] | IC50 [3] | IC50 [4] | Ki [4] | IC50 [5] | IC50 [6]

NC1CCN(c2nc3c(cc2F)c(=O)c(C(=O)O)cn3-c2ccc(F)cc2F)C1 (configuration not stated) [TOSUFLOXACIN]
Not Active: IC50 [1] | Ki [1] | IC50 [2] | IC50 [3] | IC50 [4] | Ki [4] | IC50 [5] | IC50 [6]

CC(c1cc2ccccc2s1)N(O)C(N)=O (configuration not stated) [ZILEUTON]
Not Active: IC50 [1] | Ki [1] | IC50 [2] | IC50 [3] | IC50 [4] | Ki [4] | IC50 [5] | IC50 [6]

MANGANESE CHLORIDE ANHYDROUS
Not Active: IC50 [1] | Ki [1] | IC50 [2] | Ki [2] | IC50 [3] | Ki [3] | IC50 [4] | Ki [4] | IC50 [5] | Ki [5] | IC50 [6] | Ki [6]

SODIUM ORTHOVANAD
Not Active: IC50 [1] | Ki [1] | IC50 [2] | Ki [2] | IC50 [3] | Ki [3] | IC50 [4] | Ki [4] | IC50 [5] | Ki [5] | IC50 [6] | Ki [6]
